# Results as given in the METLIN SMRT retention time set (Domingo-Almenara et al. 2019).
# Test: gradient 5% acetonitrile 3 min, to 50% in 2 min, to 85% in 15 min, held 3 min, 100 µL/min
# Details: column: Zorbax Extend-C18 2.1 x 50 mm; eluents: water / acetonitrile, 0.1% formic acid
# Summary of the method: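 Over 3 months, pure standards in mixtures of ~100 molecules were run by HPLC coupled to a quadrupole time-of-flight mass spectrometer in positive and negative ionization mode. The column was a Zorbax Extend-C18 (2.1 × 50 mm, 1.8 μm) at 100 μL/min, eluted with water and acetonitrile each holding 0.1% formic acid, with 40 μL dead and 900 μL dwell volumes. Retention time was determined from adduct peaks chosen by software and checked manually.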
row,RP-LC retention time,Compound
1,957 s,O=C(c1cccs1)N1CCCC(c2ccnc(Nc3cccc(F)c3)n2)C1 (centres undefined)
2,964 s,Cc1cc(OCC(=O)Nc2ccccc2C#N)nc(-c2ccc(F)cc2)n1
3,628 s,O=C(Nc1ccc(F)c(Cl)c1)Nc1c(-c2ccncc2)nc2ccccn12
4,869 s,O=S(=O)(c1cccn2c(SCc3ccccc3F)nnc12)N1CCCCC1
5,709 s,CC1=C(c2ccccc2)S(=O)(=O)N=C1N1CCCN(C(=O)Nc2cccc(C)c2)CC1
6,916 s,CCOc1ccc(C(=O)N2CCCC2c2nc(-c3ccc(OC)c(OC)c3)no2)cc1OCC (centres undefined)
7,1070 s,COC(=O)c1cc(C)nc2c1c(=O)n(Cc1ccccc1F)c(=O)n2Cc1ccco1
8,551 s,O=C(NCC1CCCO1)N1CCCn2nc(-c3ccncc3)cc2C1 (centres undefined)
9,851 s,O=C(Nc1cc(F)cc(F)c1)NC1CCN(c2ccccc2)C1=O (centres undefined)
10,650 s,COc1ccc(OC)c(NC(=O)COc2cc(C)nc(N3CCCC3)n2)c1
11,762 s,CCn1c(=O)n(Cc2cccnc2)c(=O)c2cnc(-c3ccc(OC)cc3)nc21
12,598 s,CCCCN(CC)CCNC(=O)C1CCN(c2ncnc3onc(C)c23)CC1
13,1030 s,CC(C)Cn1c(=O)c2ccccc2n(Cc2nc(-c3cccc(C(F)(F)F)c3)no2)c1=O
14,743 s,N#Cc1cccc(S(=O)(=O)N2CCC(c3cc(N)on3)CC2)c1
15,746 s,CCOCCCNC(=O)c1nc(Nc2ccc(F)cc2)c2ccccc2n1
16,639 s,COC[C@@H]1CN(S(=O)(=O)c2ccc(F)cc2)C[C@H]1c1ccncc1
17,783 s,CC1CCCC(C)N1CCCNC(=O)c1cc2sccc2n1Cc1ccc(Cl)cc1 (centres undefined)
18,850 s,Cc1ccc(CC(=O)N2CCC3(C2)C(=O)N(C)c2ccccc23)cc1 (centres undefined)
19,682 s,O=S(=O)(c1cccc2nsnc12)N1CCCC1c1noc(CO)n1 (centres undefined)
20,727 s,Cc1noc(-c2ccc(-n3cnc(C(=O)NCC4CC4)c3)nc2)n1
21,736 s,COc1ccc(-c2nc3c(C)cccn3c2Nc2ccc(C)cc2)cc1
22,1070 s,COC(=O)c1ccc2c(=O)n(-c3ccc(OC)c(OC)c3)c(N3CCC(C)CC3)nc2c1
23,566 s,O=C(NCCc1nc2ccccc2n1CC(=O)N1CCCC1)c1cccnc1

row,RP-LC retention time,Compound
1,993 s,COc1cc(NC(=O)Cn2cccc2-c2nnc(-c3ccccc3)o2)cc(OC)c1
2,634 s,Cn1c(N2CCCC(C(=O)Nc3nccs3)C2)cc(=O)n(C)c1=O (centres undefined)
3,810 s,COc1ccc(OC)c(NC(=O)C2CCCN(c3nnc4ccc(Cl)cn34)C2)c1 (centres undefined)
4,637 s,O=C(CSc1nccn1Cc1ccco1)Nc1ccccc1C(F)(F)F
5,715 s,Cc1cccc(NC(=O)CSc2nnc(C)s2)c1
6,1030 s,O=C(Nc1nc2c(s1)CCCC2)c1cccc(C(F)(F)F)c1
7,1080 s,CN(C)S(=O)(=O)c1ccc(-c2nnc(C(=O)N3CCC(Cc4ccccc4)CC3)o2)cc1
8,682 s,Cc1nnc(NC(=O)CCc2csc(NC(=O)NC3CCCCC3)n2)s1
9,982 s,Cc1ccc(-c2ncc(NC(=O)c3cccs3)cn2)cc1
10,840 s,Cc1c(C(=O)N2CCOCC2)cnn1-c1cc(-c2nc(C(C)C)no2)ccn1
11,576 s,CCCN1CCN(C(=O)c2nc(N3CCSCC3)c3cnn(C)c3n2)CC1
12,777 s,Cc1cnc(C(=O)N2CC(c3nc(CCOC4CCCC4)no3)C2)cn1
13,576 s,CN1CCn2ccnc2C12CCN(C(=O)Nc1ccccc1Cl)CC2
14,784 s,CCOc1ccc2nc(NC(=O)Cc3csc4nc(-c5ccc(OC)c(OC)c5)cn34)sc2c1
15,989 s,O=c1n(Cc2cccc(Cl)c2)nc2ccc(S(=O)(=O)N3CCCCC3)cn12
16,739 s,CCOC(=O)c1nc(N2CCN(Cc3ccc4c(c3)OCO4)CC2)c2ccccc2n1
17,772 s,O=C(CCNc1c(-c2cccc(F)c2)nc2cnccn12)NCc1cccc(Cl)c1
18,640 s,CCn1c(=O)c(N2CCC(C(=O)NCCCN3CCCC(C)C3)CC2)nc2cccnc21 (centres undefined)
19,571 s,CCC(=O)NCc1nc2c(n1C)CN(S(=O)(=O)c1ccc(F)c(F)c1)CC2
20,670 s,Cc1ccc(-n2ncc3c(NCCCN(C)C)ncnc32)cc1Cl
21,1210 s,CCn1c(C(=O)N2CCCC(C(=O)NC(C)C34CC5CC(CC(C5)C3)C4)C2)cc2sccc21 (centres undefined)
22,715 s,CCn1ccc2cc(S(=O)(=O)N3CCCC(C(=O)NCCCN(C)Cc4ccccc4)C3)ccc21 (centres undefined)
23,935 s,Cc1cc(-n2c(C)nc3ccccc3c2=O)ccc1NC(=O)C(C)Oc1cccc(Cl)c1 (centres undefined)

row,RP-LC retention time,Compound
1,778 s,Cc1ccc(CN2C(=O)NC3(CCN(C(=O)c4ccsc4)CC3)C2=O)cc1
2,1110 s,Cc1ccc(C)c(-c2csc3c(=O)n(CC(=O)OC(C)(C)C)cnc23)c1
3,634 s,Cc1nc2cc3c(cc2n1CC(=O)NC(C)c1ccc2c(c1)OCCCO2)OCCO3 (centres undefined)
4,620 s,CCCCN1CCN(C(=O)c2nnc(-c3ccc(S(=O)(=O)N(C)C)cc3)o2)CC1
5,1020 s,COc1ccc(-c2nnc(-c3cccc(S(=O)(=O)N4CCCCCC4)c3)o2)cc1OC
6,757 s,CC(C)NC(=O)c1ccc(OCC2CCCN2C(=O)C(C)C)cc1 (centres undefined)
7,764 s,CCOC(=O)CSCC(=O)Nc1nnc(-c2cccc([N+](=O)[O-])c2)s1
8,745 s,Cc1ccc(CN2CCCC(c3nncn3Cc3ccccc3)C2)o1 (centres undefined)
9,689 s,Cc1nnc2c(NS(=O)(=O)c3ccccc3C(F)(F)F)cccn12
10,831 s,O=c1c(Nc2ccc(F)c(Cl)c2)nc2ccncc2n1Cc1ccccc1
11,812 s,CCOc1ccc(C2c3c(oc4ccc(C)cc4c3=O)C(=O)N2CCCN2CCOCC2)cc1 (centres undefined)
12,1100 s,COc1ccc(-c2ncc3c(n2)CCN(S(=O)(=O)c2cccc(Cl)c2)C3)cc1
13,1060 s,CC(C)OC(=O)N1CCC(Oc2ncnc3c2cnn3-c2ccc(S(C)(=O)=O)cc2F)CC1
14,570 s,CCC(=O)NCc1nc2c(n1C)CN(S(=O)(=O)c1cccc(Cl)c1)CC2
15,713 s,Cn1c(C(=O)NCC2CCCO2)cc2c(=O)oc3ccccc3c21 (centres undefined)
16,1030 s,COc1ccccc1Cc1noc(C2CN(S(=O)(=O)c3ccc(F)c(Cl)c3)C2)n1
17,728 s,CNC(=O)CCc1nc2ccccc2n(CC(=O)NC(C)CCc2ccccc2)c1=O (centres undefined)
18,578 s,O=C(c1cc2ccccc2o1)N1CCN(Cc2ccsc2)CC1
19,596 s,CC(=O)N1CCC(CC(=O)N2CCc3nn(CC4CC4)c(=O)n3CC2)CC1
20,1020 s,Cc1sc(-c2nnc(C3CCC3)o2)cc1NC(=O)Cc1ccc(F)cc1
21,771 s,CCCN1CCn2cc(S(=O)(=O)Nc3ccc(C)cc3)cc2C1=O
22,738 s,CC(=O)N1CCc2cc(CNS(=O)(=O)c3ccccc3F)ccc21
23,994 s,CCCn1nnc2cc(-c3noc(C4CC(=O)N(c5cccc(Cl)c5)C4)n3)ccc21 (centres undefined)

row,RP-LC retention time,Compound
1,595 s,O=C1CC(c2ccccc2)N(C2CCC2)CCCCCN1 (centres undefined)
2,876 s,Cc1nn(CC(=O)N2CCCC2)c(=O)c2c(-n3cccc3)n(-c3cccc(F)c3)nc12
3,708 s,CCC/C(C)=C/c1ccc(CC)cn1
4,637 s,Cc1cc(N2CCN(C(=O)Nc3ccccc3Cl)CC2)nc(N2CCOCC2)n1
5,643 s,O=C(NCCn1nc(-c2ccco2)ccc1=O)c1n[nH]c2ccccc12
6,789 s,Cc1noc(C)c1S(=O)(=O)N1CCC(c2noc(-c3ccncc3)n2)C1 (centres undefined)
7,877 s,CCc1nc2cc(N3CCC(C(=O)Nc4ccc(OC)cc4OC)CC3)cnc2nc1CC
8,985 s,CC(C)c1nc(-n2cccc2)sc1C(=O)NC1CC1
9,1050 s,CC(C)S(=O)(=O)NC[C@H](C)c1ccc(NC(=O)c2cc(F)cc(F)c2)cc1
10,860 s,O=c1c(S(=O)(=O)N2CCCC2)cccn1Cc1ccccc1Cl
11,722 s,COc1ccc(C(CC(=O)NCCC(C)C)N2Cc3ccccc3C2=O)cc1OC (centres undefined)
12,526 s,COCCN1CCC(N2CCCN(C(=O)NCCc3ccccc3)CC2)C1=O (centres undefined)
13,682 s,CC(C)n1cnc(S(=O)(=O)N2CCCC(C(=O)N3CCN(c4ncccn4)CC3)C2)c1 (centres undefined)
14,662 s,O=C(c1ccccc1)N1C[C@H]2CNC(=O)[C@]23CCCC[C@@H]13
15,850 s,Cc1ccc(NC(=O)Cc2csc3nc(-c4ccc(C)c(C)c4)cn23)cc1C
16,613 s,COc1ccc(-c2cc(C(=O)N3CCN(C)CC3)nn2C2CCS(=O)(=O)C2)cc1 (centres undefined)
17,589 s,O=C(CN1C(=O)COc2ccc(C(=O)N3CCCC3)cc21)NCCN1CCCCCC1
18,586 s,CCN(CC)C(C(=O)NC1CCCC1)c1cc2c(cc1[N+](=O)[O-])OCO2 (centres undefined)
19,989 s,Nc1c(C(=O)Nc2cc(F)ccc2F)nnn1-c1ccccc1
20,697 s,Cc1cccc(Cn2c(C)c(CNCc3ccco3)c(C(=O)O)c2C)c1
